According to US8486996B2, “Aroylfuranes and aroylthiophenes” (Basilea Pharmaceutica AG, priority 2006, dated 2013):
Like-named read-outs stand apart in the source and are kept apart here.

How the values were obtained:
tumor cells [1] = assay: Mitochondrial membrane potential, JC-1 (read-out 48 h); format: cell-based; conditions: JC-1, 48 h
In short: (§1)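 Tumor cells were treated with test compounds (adherent cells after 24 h of attachment, suspension cells immediately), medium holding up to 5% DMSO. After 48 h, JC-1 (2-5 μg/ml in added medium) was applied for 30 min. Fluorescence microscopy (FITC/TRITC filters) scored the fraction of cells with dissipated mitochondrial membrane potential as categories A-D.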

[2] = as above; format: cell-based; conditions: PBL, JC-1, 48 h
In short: as §1

tumor cells [3] = assay: Hoechst 33342 nuclear staining (48 h read-out); format: cell-based
In short: (§2)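 Adherent cells pre-spread 24 h before dosing, suspension cells dosed at seeding; compounds at 0.001 μM-10 μM final, 48 h at culture conditions. Hoechst 33342 (2-5 μg/ml) added for 30 min, then fluorescence microscopy scoring of apoptotic nuclear fraction and apoptosis-specific morphology, reported as scores A-D.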

[4] = Hoechst 33342 nuclear staining (48 h read-out); format: cell-based
In short: as §2

tumor cells [5] = assay: MTS proliferation assay (72 h read-out); format: cell-based
In short: (§3)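 Tumour cells (1.5×10^3–10^4 per well) were seeded 24 h before compound addition, then exposed to 0.001–10 μM final compound for 72 h under culture conditions. MTS reagent was added for a further 3 h, absorbance was read at 492 nm, and results were binned into scores A–D.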

[6] = MTS proliferation assay (72 h read-out); format: cell-based; conditions: MRC5 cells
In short: as §3

HeLa = assay: Colony Forming Units (read-out 6 days), HeLa; format: cell-based, human; conditions: colonies containing more than 30 cells, read-out: Colony Forming Units, score based on IC50, HeLa
Method: (§4) Appropriate numbers of cells (100-150 cells, dependent on the cell type) are being seeded out in 1 ml complete medium into 6-well plates and allowed to attach for 48 h. The compounds are added after 48 h in 500 μl solution. The concentrations are in the range of 0.001 μM-3 μM. Control plates receive the same volume of medium containing the appropriate amount of DMSO. The plates are incubated for 5-7 days at cell culture conditions and subsequently scored for growth of colonies (containing more than 30 cells) by using a microscope.

H460 = assay: Colony Forming Units (read-out 6 days), H460; format: cell-based, human; conditions: colonies containing more than 30 cells, read-out: Colony Forming Units, score based on IC50, H460
Method: as §4

[7] = Homo sapiens, HeLa cells, read-out: Mitochondrial membrane potential (read-out 48 h) HeLa
[8] = Homo sapiens, Jurkat cells, read-out: Mitochondrial membrane potential (read-out 48 h) Jurkat
[9] = Homo sapiens, MCF7 cells, read-out: Mitochondrial membrane potential (read-out 48 h) MCF7
[10] = Jily cells, read-out: Mitochondrial membrane potential (read-out 48 h) Jily
[11] = Homo sapiens, HeLa cells, read-out: Hoechst 33342 nuclear staining EC50, HeLa
[12] = Homo sapiens, Jurkat cells, read-out: Hoechst 33342 nuclear staining EC50, Jurkat
[13] = Jily cells, read-out: Hoechst 33342 nuclear staining EC50, Jily
[14] = Homo sapiens, MRC5 cells, read-out: Hoechst 33342 nuclear staining EC50, MRC5
[15] = PBL, read-out: Hoechst 33342 nuclear staining EC50, PBL
[16] = Homo sapiens, HT-1080, HT1080 cells, read-out: MTS proliferation assay IC50, HT1080
[17] = Homo sapiens, HeLa cells, read-out: MTS proliferation assay IC50, HeLa
[18] = Homo sapiens, Jurkat cells, read-out: MTS proliferation assay IC50, Jurkat
[19] = Jily cells, read-out: MTS proliferation assay IC50, Jily
[20] = HeLa cells, read-out: Mitochondrial membrane potential (read-out 48 h) HeLa
[21] = Jurkat cells, read-out: Mitochondrial membrane potential (read-out 48 h) Jurkat
[22] = MCF7 cells, read-out: Mitochondrial membrane potential (read-out 48 h) MCF7
[23] = HeLa cells, read-out: Hoechst 33342 nuclear staining EC50, HeLa
[24] = Jurkat cells, read-out: Hoechst 33342 nuclear staining EC50, Jurkat
[25] = MRC5 cells, read-out: Hoechst 33342 nuclear staining EC50, MRC5
[26] = HT1080 cells, read-out: MTS proliferation assay IC50, HT1080
[27] = HeLa cells, read-out: MTS proliferation assay IC50, HeLa

Compound	melting point	EC50 (tumor cells [1]; [7])	EC50 (tumor cells [1]; [8])	EC50 (tumor cells [1]; [9])	EC50 (tumor cells [1]; [10])	EC50 [2]	EC50 (tumor cells [3]; [11])	EC50 (tumor cells [3]; [12])	EC50 (tumor cells [3]; [13])	EC50 [4, 14]	EC50 [4, 15]	IC50 (tumor cells [5]; [16])	IC50 (tumor cells [5]; [17])	IC50 (tumor cells [5]; [18])	IC50 (tumor cells [5]; [19])	IC50 ([6]; Homo sapiens)	further results
CCOc1ccc(F)cc1C(=O)c1sc2ncc(N)cc2c1N [Example 116]	80 °C	100 to 1000 nM	10 to 100 nM	> 1000 nM	10 to 100 nM	> 1000 nM	10 to 100 nM	10 to 100 nM	10 to 100 nM	10 to 100 nM	> 1000 nM	100 to 1000 nM	100 to 1000 nM	10 to 100 nM	10 to 100 nM	100 to 1000 nM	–
CCOc1ccc(N)cc1C(=O)c1oc2ccc(Cl)cc2c1N [Example 7]	144 to 146 °C	100 to 1000 nM	100 to 1000 nM	> 1000 nM	100 to 1000 nM	> 1000 nM	100 to 1000 nM	100 to 1000 nM	100 to 1000 nM	> 1000 nM	> 1000 nM	100 to 1000 nM	100 to 1000 nM	–	100 to 1000 nM	> 1000 nM	–
CCOc1ccccc1C(=O)c1sc2ncc(N)cc2c1N [Example 117]	116 °C	> 1000 nM	> 1000 nM	> 1000 nM	> 1000 nM	> 1000 nM	> 1000 nM	> 1000 nM	> 1000 nM	> 1000 nM	> 1000 nM	> 1000 nM	> 1000 nM	> 1000 nM	> 1000 nM	> 1000 nM	–
CCOc1ccc(F)cc1C(=O)c1oc2cnc(C)cc2c1N [Example 31]	162 °C	100 to 1000 nM	10 to 100 nM	> 1000 nM	10 to 100 nM	> 1000 nM	10 to 100 nM	10 to 100 nM	10 to 100 nM	100 to 1000 nM	> 1000 nM	10 to 100 nM	10 to 100 nM	10 to 100 nM	10 to 100 nM	10 to 100 nM	–
CCOc1ccc(F)cc1C(=O)c1sc2ncc([N+](=O)[O-])cc2c1N [Example 115]	205 °C	> 1000 nM	> 1000 nM	> 1000 nM	> 1000 nM	> 1000 nM	> 1000 nM	> 1000 nM	> 1000 nM	> 1000 nM	> 1000 nM	> 1000 nM	> 1000 nM	> 1000 nM	> 1000 nM	> 1000 nM	–
CCOc1ccccc1C(=O)COc1nc(C)ccc1C#N [Example 145]	156 to 158 °C	> 1000 nM	100 to 1000 nM	100 to 1000 nM	–	> 1000 nM	> 1000 nM	100 to 1000 nM	100 to 1000 nM	> 1000 nM	> 1000 nM	–	–	–	–	–	–
CCOc1ccc(C(=O)OC)cc1C(=O)c1oc2ccc(Cl)cc2c1N [Example 20]	136 to 138 °C	100 to 1000 nM	10 to 100 nM	100 to 1000 nM	10 to 100 nM	> 1000 nM	100 to 1000 nM	10 to 100 nM	10 to 100 nM	> 1000 nM	> 1000 nM	10 to 100 nM	100 to 1000 nM	10 to 100 nM	10 to 100 nM	–	–
CCOc1ccc(Cl)cc1C(=O)COc1nc(C)ccc1C#N [Example 146]	138 to 140 °C	100 to 1000 nM	10 to 100 nM	100 to 1000 nM	–	> 1000 nM	100 to 1000 nM	10 to 100 nM	100 to 1000 nM	100 to 1000 nM	> 1000 nM	–	–	–	–	–	–
CCOc1ccc(F)cc1C(=O)c1oc2ccc(O)cc2c1N [Example 75]	–	–	–	–	< 10 nM	> 1000 nM	–	–	< 10 nM	–	> 1000 nM	–	–	–	< 10 nM	–	EC50 (tumor cells [1]; [20]): < 10 nM; EC50 (tumor cells [1]; [21]): < 10 nM; EC50 (tumor cells [1]; [22]): 10 to 100 nM; EC50 (tumor cells [3]; [23]): < 10 nM; EC50 (tumor cells [3]; [24]): < 10 nM; EC50 [4, 25]: < 10 nM; IC50 (tumor cells [5]; [26]): < 10 nM; IC50 (tumor cells [5]; [27]): 10 to 100 nM; IC50 (tumor cells [5]; Jurkat cells, read-out: MTS proliferation assay IC50, Jurkat): < 10 nM; IC50 [6]: < 10 nM; IC50 (HeLa): 10 to 100 nM; IC50 (H460): 10 to 100 nM
CCOc1ccc([N+](=O)[O-])cc1C(=O)c1oc2ccc(Cl)cc2c1N [Example 3, 3-Amino-5-chloro-2-(2-ethoxy-5-nitrobezoyl)-benzofuran]	–	< 10 nM	< 10 nM	10 to 100 nM	< 10 nM	> 1000 nM	< 10 nM	< 10 nM	< 10 nM	< 10 nM	> 1000 nM	< 10 nM	< 10 nM	< 10 nM	< 10 nM	< 10 nM	IC50 (HeLa; Homo sapiens, 144 h): < 10 nM; IC50 (H460; Homo sapiens, NCI-H460, 144 h): < 10 nM
CCOc1ccccc1C(=O)c1cc2cc(OC)ccc2o1 [Example 53]	–	–	–	–	10 to 100 nM	> 1000 nM	–	–	10 to 100 nM	–	> 1000 nM	–	–	–	< 10 nM	–	EC50 (tumor cells [1]; [20]): 10 to 100 nM; EC50 (tumor cells [1]; [21]): 10 to 100 nM; EC50 (tumor cells [1]; [22]): 10 to 100 nM; EC50 (tumor cells [3]; [23]): 10 to 100 nM; EC50 (tumor cells [3]; [24]): < 10 nM; EC50 [4, 25]: 100 to 1000 nM; IC50 (tumor cells [5]; [26]): < 10 nM; IC50 (tumor cells [5]; [27]): < 10 nM; IC50 [6]: < 10 nM; IC50 (HeLa): 10 to 100 nM; IC50 (H460): 10 to 100 nM
